Assay results taken from US20260317344A1, “EGFR INHIBITORS FOR TREATING DISEASE” (BLOSSOMHILL THERAPEUTICS, INC., priority 2023, published 2026).

Key:
[1] = biological target: T1, pEGFR, A431 cells (wildtype EGFR) (Homo sapiens, UniProt P00533); test: Cellular EGFR phosphorylation assay (LANCE Ultra TR-FRET) in A431 cells; assay type: cell-based; conditions: 4 hours at 37° C., 40 ng/mL EGF for the final 10 minutes, read-out: A431 pEGFR IC50
T1 construct: pEGFR (Tyr1068) TR-FRET
Outline: (§1)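 Phospho-EGFR (Tyr1068) measured by TR-FRET in lysates after 4 h compound exposure at 37° C (9 doses, 3-fold steps). A431 cells, seeded at 30 thousand per well, received 40 ng/mL EGF for the last 10 min; PC-9 and NCI-H1975 seeded at 50 thousand per well, unstimulated. IC50 values reported.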

[2] = biological target: EGFR (D746-750) (Homo sapiens, UniProt P00533, DEL746-750); test: HotSpot radiometric kinase assay, inhibition of EGFR 746-750 mutant; assay type: biochemical; conditions: 33P ATP, room temperature, 120 m
EGFR (D746-750), sequence (P00533 with tags, fused parts or gaps DEL746-750): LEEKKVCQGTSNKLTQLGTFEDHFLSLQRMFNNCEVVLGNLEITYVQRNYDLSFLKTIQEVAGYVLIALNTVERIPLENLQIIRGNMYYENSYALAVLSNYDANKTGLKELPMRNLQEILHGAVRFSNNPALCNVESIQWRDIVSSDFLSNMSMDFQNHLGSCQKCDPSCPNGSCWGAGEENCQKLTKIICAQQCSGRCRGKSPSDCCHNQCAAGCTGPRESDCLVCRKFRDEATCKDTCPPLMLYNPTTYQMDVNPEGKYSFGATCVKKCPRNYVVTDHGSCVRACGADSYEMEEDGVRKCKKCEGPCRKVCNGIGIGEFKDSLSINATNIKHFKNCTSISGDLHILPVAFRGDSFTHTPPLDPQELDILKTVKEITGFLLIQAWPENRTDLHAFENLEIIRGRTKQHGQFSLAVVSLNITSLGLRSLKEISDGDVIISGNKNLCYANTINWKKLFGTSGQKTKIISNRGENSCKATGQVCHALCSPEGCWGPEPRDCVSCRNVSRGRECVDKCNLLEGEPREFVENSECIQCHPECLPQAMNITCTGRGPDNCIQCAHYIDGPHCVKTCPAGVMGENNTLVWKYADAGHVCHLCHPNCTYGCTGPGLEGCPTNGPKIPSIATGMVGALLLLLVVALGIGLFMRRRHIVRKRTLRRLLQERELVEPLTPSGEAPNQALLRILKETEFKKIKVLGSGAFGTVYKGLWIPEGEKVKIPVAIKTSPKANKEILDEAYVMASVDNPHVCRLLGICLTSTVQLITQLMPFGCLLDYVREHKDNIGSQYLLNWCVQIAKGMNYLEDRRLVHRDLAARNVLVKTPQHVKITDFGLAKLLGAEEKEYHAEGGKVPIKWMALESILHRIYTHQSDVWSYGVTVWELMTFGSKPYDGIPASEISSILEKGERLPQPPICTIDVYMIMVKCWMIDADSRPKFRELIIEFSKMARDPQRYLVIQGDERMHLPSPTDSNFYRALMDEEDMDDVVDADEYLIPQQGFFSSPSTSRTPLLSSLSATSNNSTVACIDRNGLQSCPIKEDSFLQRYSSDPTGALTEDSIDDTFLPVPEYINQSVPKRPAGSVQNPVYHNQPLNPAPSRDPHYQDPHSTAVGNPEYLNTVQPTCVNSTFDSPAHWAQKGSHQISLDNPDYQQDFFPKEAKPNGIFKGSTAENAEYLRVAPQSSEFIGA
Outline: (§2)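 Radiometric filter-binding format: ATP plus 33P-ATP ([…]) was added about 20 min after compound to kinase and substrate in HEPES pH 7.5 buffer with Mg2+, EGTA, Brij35, BSA, vanadate, DTT and 1% DMSO. After 120 min at room temperature, reactions were spotted on P81 paper and washed in phosphoric acid; IC50 values fitted.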

[3] = biological target: EGFR (L858R) (Homo sapiens, UniProt P00533, L858R); test: HotSpot radiometric kinase assay, inhibition of EGFR L858R mutant; assay type: biochemical; conditions: 33P ATP, room temperature, 120 m
Description: (§3) Biochemical Assays for inhibition of wild-type and mutant EGFRs
(§4) Briefly, specific kinase/substrate pairs along with required cofactors were prepared in reaction buffer; 20 mM HEPES pH 7.5, 10 mM […], 1 mM EGTA, 0.02% Brij35, 0.02 mg/ml BSA, 0.1 mM Na3VO4, 2 mM DTT, 1% DMSO. Compounds were delivered into the reaction, followed ~20 minutes later by addition of a mixture of ATP (Sigma, St. Louis MO) and ^33P ATP (Perkin Elmer, Waltham MA) to a final concentration of […]. Reactions were carried out at room temperature for 120 m, followed by spotting of the reactions onto P81 ion exchange filter paper (Whatman Inc., Piscataway, NJ). Unbound phosphate was removed by extensive washing of filters in 0.75% phosphoric acid. […] IC50 values and curve fits were obtained using Prism (GraphPad Software).

[4] = biological target: T2, pEGFR, NCI-H1975 cells (L858R/T790M EGFR) (Homo sapiens, UniProt P00533, L858R/T790M); test: Cellular EGFR phosphorylation assay (LANCE Ultra TR-FRET) in NCI-H1975 cells; assay type: cell-based; conditions: 4 hours at 37° C., read-out: H1975 pEGFR IC50
T2 construct: pEGFR (Tyr1068) TR-FRET
Outline: as §1

[5] = biological target: EGFR (L858R/T790M/C797S) (Homo sapiens, UniProt P00533, C797S/L858R/T790M); test: HotSpot radiometric kinase assay, inhibition of EGFR L858R/T790M/C797S mutant; assay type: biochemical; conditions: 33P ATP, room temperature, 120 m
EGFR (L858R/T790M/C797S), sequence (P00533 25-1210 T790M/C797S/L858R): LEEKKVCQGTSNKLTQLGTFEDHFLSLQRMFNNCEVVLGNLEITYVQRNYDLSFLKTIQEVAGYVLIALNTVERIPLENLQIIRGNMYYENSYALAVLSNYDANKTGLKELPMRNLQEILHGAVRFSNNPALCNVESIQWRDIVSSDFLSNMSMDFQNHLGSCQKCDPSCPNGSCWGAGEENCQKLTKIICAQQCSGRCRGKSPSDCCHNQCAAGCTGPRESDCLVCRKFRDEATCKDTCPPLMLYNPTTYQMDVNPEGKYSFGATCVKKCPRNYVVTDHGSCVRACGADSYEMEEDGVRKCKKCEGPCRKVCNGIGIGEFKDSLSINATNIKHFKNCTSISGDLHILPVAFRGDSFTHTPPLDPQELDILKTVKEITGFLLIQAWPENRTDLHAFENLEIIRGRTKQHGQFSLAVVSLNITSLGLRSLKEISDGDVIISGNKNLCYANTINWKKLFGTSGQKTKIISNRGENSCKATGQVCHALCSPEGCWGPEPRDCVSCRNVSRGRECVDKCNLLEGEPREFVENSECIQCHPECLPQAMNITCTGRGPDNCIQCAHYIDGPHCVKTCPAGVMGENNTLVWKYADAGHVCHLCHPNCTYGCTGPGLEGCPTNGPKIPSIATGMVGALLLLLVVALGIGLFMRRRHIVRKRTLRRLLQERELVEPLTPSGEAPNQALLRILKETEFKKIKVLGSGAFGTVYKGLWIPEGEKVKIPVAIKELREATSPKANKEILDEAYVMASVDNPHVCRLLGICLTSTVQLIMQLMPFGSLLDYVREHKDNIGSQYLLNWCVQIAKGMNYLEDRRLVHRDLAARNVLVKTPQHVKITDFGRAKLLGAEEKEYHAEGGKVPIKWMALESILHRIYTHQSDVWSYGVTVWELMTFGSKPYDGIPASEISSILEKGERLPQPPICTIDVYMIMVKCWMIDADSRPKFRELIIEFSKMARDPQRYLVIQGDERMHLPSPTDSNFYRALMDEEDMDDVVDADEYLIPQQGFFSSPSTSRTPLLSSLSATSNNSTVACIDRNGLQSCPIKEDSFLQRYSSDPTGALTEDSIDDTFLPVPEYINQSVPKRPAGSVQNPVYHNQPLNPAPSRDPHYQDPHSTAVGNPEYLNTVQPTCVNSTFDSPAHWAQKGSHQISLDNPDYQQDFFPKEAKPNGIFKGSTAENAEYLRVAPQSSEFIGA
Outline: as §2

[6] = test system: BaF3 cells with engineered EGFR d746-750/T790M; test: 3-Day CellTiter Glo (CTG) cell proliferation assay, BaF3 EGFR d746-750/T790M; assay type: cell-based; conditions: Mus musculus; BaF3 EGFR d746-750/T790M cells, 3-day CTG proliferation, 72 hours
Outline: (§5)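 Growth inhibition in transgene-bearing BaF3 lines was scored after three days of compound treatment by CellTiter-Glo 2.0 ATP luminescence, yielding IC50 values.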

[7] = biological target: T3, pEGFR, PC-9 cells (d746-750 EGFR) (Homo sapiens, UniProt P00533, DEL746-750); test: Cellular EGFR phosphorylation assay (LANCE Ultra TR-FRET) in PC-9 cells; assay type: cell-based; conditions: 4 hours at 37° C., read-out: PC-9 pEGFR IC50
T3 construct: pEGFR (Tyr1068) TR-FRET
T3 sequence (P00533 with tags, fused parts or gaps DEL746-750): as the sequence (P00533 with tags, fused parts or gaps DEL746-750) above
Outline: as §1

[8] = biological target: EGFR (L858R/T790M) (Homo sapiens, UniProt P00533, L858R/T790M); test: HotSpot radiometric kinase assay, inhibition of EGFR L858R/T790M mutant; assay type: biochemical; conditions: 33P ATP, room temperature, 120 m
EGFR (L858R/T790M), sequence (P00533 25-1210 T790M/L858R): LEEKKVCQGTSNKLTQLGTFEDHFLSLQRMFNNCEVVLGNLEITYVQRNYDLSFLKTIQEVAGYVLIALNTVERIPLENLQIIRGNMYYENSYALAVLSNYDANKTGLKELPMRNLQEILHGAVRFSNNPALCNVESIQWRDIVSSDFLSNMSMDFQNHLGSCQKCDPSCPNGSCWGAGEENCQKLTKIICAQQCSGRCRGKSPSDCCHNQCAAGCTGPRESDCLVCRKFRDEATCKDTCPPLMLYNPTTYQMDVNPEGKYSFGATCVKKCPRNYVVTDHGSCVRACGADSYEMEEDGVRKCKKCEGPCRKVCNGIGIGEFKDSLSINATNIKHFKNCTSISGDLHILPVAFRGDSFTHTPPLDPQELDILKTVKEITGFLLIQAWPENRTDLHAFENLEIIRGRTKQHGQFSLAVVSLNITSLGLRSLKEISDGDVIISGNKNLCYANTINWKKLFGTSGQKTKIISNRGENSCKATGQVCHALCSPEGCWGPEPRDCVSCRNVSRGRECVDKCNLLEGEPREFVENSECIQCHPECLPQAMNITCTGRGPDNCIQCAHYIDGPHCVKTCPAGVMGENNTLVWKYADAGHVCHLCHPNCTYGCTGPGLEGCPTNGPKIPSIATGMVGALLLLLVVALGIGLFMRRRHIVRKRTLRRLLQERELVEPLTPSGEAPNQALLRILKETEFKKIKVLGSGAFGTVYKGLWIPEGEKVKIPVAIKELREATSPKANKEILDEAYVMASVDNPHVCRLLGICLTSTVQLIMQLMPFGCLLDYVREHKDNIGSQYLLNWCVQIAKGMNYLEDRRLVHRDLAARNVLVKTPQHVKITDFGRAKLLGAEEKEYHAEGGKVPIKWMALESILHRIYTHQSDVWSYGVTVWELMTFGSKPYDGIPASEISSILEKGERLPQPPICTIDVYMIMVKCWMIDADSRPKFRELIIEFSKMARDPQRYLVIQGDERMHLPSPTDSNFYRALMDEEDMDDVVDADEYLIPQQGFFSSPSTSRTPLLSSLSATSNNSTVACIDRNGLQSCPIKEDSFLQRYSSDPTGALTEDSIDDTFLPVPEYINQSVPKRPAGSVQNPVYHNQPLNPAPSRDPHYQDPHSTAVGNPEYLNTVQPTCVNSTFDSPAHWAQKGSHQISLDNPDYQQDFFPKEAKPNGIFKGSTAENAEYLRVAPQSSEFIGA
Description: as §3, §4

[9] = biological target: EGFR WT (Homo sapiens, UniProt P00533); test: HotSpot radiometric kinase assay, inhibition of EGFR WT; assay type: biochemical; conditions: 33P ATP, room temperature, 120 m
Description: as §3, §4

[10] = biological target: EGFR (D746-750/C797S) (Homo sapiens, UniProt P00533, C797S/DEL746-750); test: HotSpot radiometric kinase assay, inhibition of EGFR 746-750/C797S mutant; assay type: biochemical; conditions: 33P ATP, room temperature, 120 m
Outline: as §2

[11] = test system: BaF3 cells with engineered EGFR L858R/T790M/C797S; test: 3-Day CellTiter Glo (CTG) cell proliferation assay, BaF3 EGFR L858R/T790M/C797S; assay type: cell-based; conditions: Mus musculus, 3-day CTG proliferation, 72 hours
Outline: as §5

[12] = biological target: EGFR (D770_N771insNPG) (Homo sapiens, UniProt P00533, INS770NPG); test: HotSpot radiometric kinase assay, inhibition of EGFR (D770_N771insNPG) mutant; assay type: biochemical; conditions: 33P ATP, room temperature, 120 m
Outline: as §2

[13] = test system: NCI-H1975 cells; test: 5-Day CellTiter Glo (CTG) cell proliferation assay, NCI-H1975; assay type: cell-based; conditions: Homo sapiens; NCI-H1975 cells (L858R/T790M EGFR), 5-day CTG proliferation, 120 hours; read-out: H1975 IC50
Outline: (§6)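 Proliferation of EGFR-driven NSCLC cells was scored as CellTiter-Glo 2.0 luminescence after a 5-day (120 h) incubation with compounds in 9 doses. IC50 values came from the dose-response curves.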

[14] = test system: PC-9 cells; test: 5-Day CellTiter Glo (CTG) cell proliferation assay, PC-9; assay type: cell-based; conditions: Homo sapiens; PC-9 cells (d746-750 EGFR), 5-day CTG proliferation, 120 hours; read-out: PC-9 IC50
Outline: as §6

[15] = test system: HCC827 cells; test: 5-Day CellTiter Glo (CTG) cell proliferation assay, HCC827; assay type: cell-based; conditions: Homo sapiens; HCC827 cells (d746-750 EGFR), 5-day CTG proliferation, 120 hours; read-out: HCC827 IC50
Outline: as §6

[16] = test system: BaF3 cells with engineered EGFR L858R/C797S; test: 3-Day CellTiter Glo (CTG) cell proliferation assay, BaF3 EGFR L858R/C797S; assay type: cell-based; conditions: Mus musculus, 3-day CTG proliferation, 72 hours
Outline: as §5

Structure (SMILES) | IC50 [1] | IC50 [2] | IC50 [3] | IC50 [4] | IC50 [5] | IC50 [6] | IC50 [7] | IC50 [8] | IC50 [9] | IC50 [10] | IC50 [11] | IC50 [12] | IC50 [13] | IC50 [14] | IC50 [15] | IC50 [16]
CCN1Cc2c(c(OC(C)C)nn2CCO)/C=C/c2n[nH]c3cnc(cc23)-c2cnn(C)c2O[C@H](C)C1 [Ex. 10, 2-[(10R,17E)-12-ethyl-8,10-dimethyl-16-[(propan-2-yl)oxy]-2,8,10,11,12,13-hexahydro-14H-5,3-(azenometheno)tripyrazolo[3,4-f:3′,4′-j:4″,3″-n][1,4]oxazacyclopentadecin-14-yl]ethan-1-ol] | 51.9 nM | 0.64 nM | 0.46 nM | 4.82 nM | 0.51 nM | 0.69 nM | 10.8 nM | 0.46 nM | 0.35 nM | 0.27 nM | 1.89 nM | 0.4 nM |  |  |  | 
CCOc1nn(CCO)c2c1/C=C/c1n[nH]c3cnc(cc13)-c1c(C)nn(C)c1O[C@@H](C)CN(C(C)C)C2 [Ex. 8, 2-[(10S,17E)-16-ethoxy-6,8,10-trimethyl-12-(propan-2-yl)-2,8,10,11,12,13-hexahydro-14H-5,3-(azenometheno)tripyrazolo[3,4-f:3′,4′-j:4″,3″-n][1,4]oxazacyclopentadecin-14-yl]ethan-1-ol] | 8.1 nM | 0.55 nM | 0.35 nM | 1.54 nM | 0.48 nM | 0.44 nM | 1.05 nM | 0.7 nM | 0.15 nM | 0.37 nM | 0.81 nM | 0.32 nM | 0.92 nM | 0.36 nM | 0.11 nM | 0.1 nM
CC(C)Oc1nn(CCO)c2c1/C=C/c1n[nH]c3cnc(cc13)-c1cnn(C)c1O[C@H](C)CN(C(C)C)C2 [Ex. 3, 2-[(10R,17E)-8,10-dimethyl-12-(propan-2-yl)-16-[(propan-2-yl)oxy]-2,8,10,11,12,13-hexahydro-14H-5,3-(azenometheno)tripyrazolo[3,4-f:3′,4′-j:4″,3″-n][1,4]oxazacyclopentadecin-14-yl]ethan-1-ol] | 36.5 nM | 1.27 nM | 1.5 nM | 6.43 nM | 0.85 nM | 4.51 nM | 14.7 nM | 1.33 nM | 1.83 nM | 1.56 nM | 1.81 nM | 3.8 nM | 29.6 nM | 55.4 nM | 4.42 nM | 1.3 nM
CCN1Cc2c(c(OC(C)C)nn2CCO)/C=C/c2n[nH]c3cnc(cc23)-c2cnn(C)c2O[C@@H](C)C1 [Ex. 9, 2-[(10S,17E)-12-ethyl-8,10-dimethyl-16-[(propan-2-yl)oxy]-2,8,10,11,12,13-hexahydro-14H-5,3-(azenometheno)tripyrazolo[3,4-f:3′,4′-j:4″,3″-n][1,4]oxazacyclopentadecin-14-yl]ethan-1-ol] | 19.8 nM | 0.67 nM | 0.45 nM | 4.19 nM | 0.49 nM |  | 3.48 nM | 0.45 nM | 0.18 nM | 0.33 nM | 0.93 nM | 0.29 nM | 3.22 nM | 12.1 nM | 0.39 nM | 0.19 nM
